Drawing on US10501421B1, “Substituted benzimidazoles as modulators of Ras signaling” (VANDERBILT UNIVERSITY, priority 2017, dated 2019), this text covers EC50 and Ki for 26 compounds.

Each structure is given as a SMILES string. pEC50, pKi: −log10 of the molar value. Counter-ions that a name gives are not always drawn.

One may read the pEC50 as the negative decadic logarithm of the EC50, by convention in mol/L. The low end stands for a high EC50, the high end for a low EC50. The term pKi denotes the Ki on a negative log10 scale, so that one unit is a factor of ten.

Assay [1] deals with Ras GEF SOS (Son of Sevenless) (Homo sapiens, UniProt Q07889). Nature of the assay: SOS-mediated nucleotide exchange on Ras (BODIPY-GDP fluorescence). It is filed as biochemical. Conditions: SOS-mediated exchange of BODIPY-GDP for GTP on Ras. The method in brief: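 Ras loaded with BODIPY-GDP was mixed in buffer with test compound, then GTP and SOS. Fluorescence change from labeled GDP/GTP exchange was followed over time, and rates came from single-exponential fits. EC50 came from a four-parameter fit of mean rate against compound concentration.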

Assay [2] has as its target T1, Son of Sevenless (SOS) (Homo sapiens, UniProt Q07889).
T1 sequence (Q07889 564-1049 limits assumed): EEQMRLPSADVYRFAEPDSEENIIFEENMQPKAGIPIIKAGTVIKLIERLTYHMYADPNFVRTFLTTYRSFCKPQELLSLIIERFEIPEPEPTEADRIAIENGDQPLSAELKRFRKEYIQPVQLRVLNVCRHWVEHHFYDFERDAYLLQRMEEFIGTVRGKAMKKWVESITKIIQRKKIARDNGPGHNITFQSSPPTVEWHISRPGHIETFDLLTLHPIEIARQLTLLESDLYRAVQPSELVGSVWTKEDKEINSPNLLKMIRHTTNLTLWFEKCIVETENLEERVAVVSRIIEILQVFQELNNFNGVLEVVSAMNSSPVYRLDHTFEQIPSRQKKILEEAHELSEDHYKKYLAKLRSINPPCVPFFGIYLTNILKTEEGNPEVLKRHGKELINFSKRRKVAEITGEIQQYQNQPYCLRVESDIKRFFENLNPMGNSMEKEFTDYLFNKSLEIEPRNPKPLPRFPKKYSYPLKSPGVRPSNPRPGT
Nature of the assay: Binding to SOS, fluorescence polarization anisotropy (FPA) probe displacement. The following applies: displacement of FITC-conjugated probe (Example 285), affinity calculated from IC50. The method in brief:
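A FITC-conjugated probe compound was incubated with SOS in buffer, and its displacement was tracked as a change in fluorescence anisotropy across a test-compound dose range. IC50 came from a four-parameter variable-slope fit, and binding affinity was calculated from it.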

Sequence of Ras GEF SOS (Son of Sevenless) (P01112 1-166 partner limits assumed, one chain of several): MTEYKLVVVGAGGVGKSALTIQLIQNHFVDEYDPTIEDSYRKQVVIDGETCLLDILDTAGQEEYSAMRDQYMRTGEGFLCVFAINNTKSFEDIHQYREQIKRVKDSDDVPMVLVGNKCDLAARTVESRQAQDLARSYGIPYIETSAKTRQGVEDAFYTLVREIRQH

Consider `Fc1ccc(Cn2c(N3CCNCC3)nc3ccccc32)cc1Cl` [Example 7, 1-(3-chloro-4-fluorobenzyl)-2-(piperazin-1-yl)-1H-benzo[d]imidazole trifluoroacetate], for which the pEC50 in assay [1] was 4.52 to 5.30. Besides, the pKi in assay [2] is less than 5.30.
Consider `C=Cc1cc2c(cc1C)nc(NCCN)n2Cc1ccc(F)c(Cl)c1` [Example 65, N^1-(1-(3-chloro-4-fluorobenzyl)-5-methyl-6-vinyl-1H-benzo[d]imidazol-2-yl)ethane-1,2-diamine trifluoroacetate], for which, in assay [1], the pEC50 was 5.30 to 6.00. Further, the pKi in assay [2] is 5.30 to 6.00.
Turning to `Fc1ccc(Cn2c(N3CCNCC3)nc3ccccc32)cc1` [Example 10, 1-(4-fluorobenzyl)-2-(piperazin-1-yl)-1H-benzo[d]imidazole trifluoroacetate], the negative logarithm of the EC50 (pEC50) in assay [1] is 4.00 to 4.52. Further, the negative-log Ki (pKi) in assay [2] was less than 5.30.
The matching figures for `Cc1cnc2nc(NCCN)n(Cc3ccc(F)c(C)c3)c2c1` [Example 245, N^1-(1-(4-fluoro-3-methylbenzyl)-6-methyl-1H-imidazo[4,5-b]pyridin-2-yl)ethane-1,2-diamine]: 5.30 to 6.00 and less than 5.30.
With `Cc1cc(N2CCC(CN)C2)c2nc(N3CCNCC3)n(Cc3cc(C)c(F)c(C)c3)c2c1` (stereo not shown) [Example 189, (1-(1-(4-fluoro-3,5-dimethylbenzyl)-6-methyl-2-(piperazin-1-yl)-1H-benzo[d]imidazol-4-yl)pyrrolidin-3-yl)methanamine trifluoroacetate], the negative logarithm of the EC50 (pEC50) in assay [1] was 5.30 to 6.00. Further, the pKi in assay [2] is 6.00 to 6.30.
The matching figures for `COCCN1CCN(c2cc(C)cc3c2nc(N2CCNCC2)n3Cc2cc(C)c(F)c(C)c2)CC1` [Example 195, 1-(4-fluoro-3,5-dimethylbenzyl)-4-(4-(2-methoxyethyl)piperazin-1-yl)-6-methyl-2-(piperazin-1-yl)-1H-benzo[d]imidazole trifluoroacetate]: 5.30 to 6.00 and 6.00 to 6.30.
In assay [1], `Cc1cc2nc(N3CCNCC3)n(Cc3ccc(F)c(Cl)c3)c2cc1C` [Example 16, 1-(3-chloro-4-fluorobenzyl)-5,6-dimethyl-2-(piperazin-1-yl)-1H-benzo[d]imidazole trifluoroacetate] showed a pEC50 of 5.30 to 6.00. Also, the negative-log Ki (pKi) in assay [2] was 5.30 to 6.00.
In the case of `Cc1cc2c(nc(NCCN)n2Cc2ccc(F)c(C)c2)c(-c2ccccc2C)n1` [Example 224, N^1-(1-(4-fluoro-3-methylbenzyl)-6-methyl-4-(o-tolyl)-1H-imidazo[4,5-c]pyridin-2-yl)ethane-1,2-diamine], the negative logarithm of the EC50 (pEC50) in assay [1] was 4.52 to 5.30. The negative-log Ki (pKi) in assay [2] was less than 5.30.
Take `Cc1cc2nc(NCCN(C)C)n(Cc3cc(C)c(F)c(C)c3)c2cc1C` [Example 44, N^1-(1-(4-fluoro-3,5-dimethylbenzyl)-5,6-dimethyl-1H-benzo[d]imidazol-2-yl)-N^2,N^2-dimethylethane-1,2-diamine trifluoroacetate]: the negative logarithm of the EC50 (pEC50) in assay [1] is 4.52 to 5.30. Besides, the negative-log Ki (pKi) in assay [2] is less than 5.30.
The matching figures for `Cc1cc2nc(NC3CCNC3)n(Cc3ccc(F)c(Cl)c3)c2cc1C` (stereo not shown) [Example 293, 1-(3-chloro-4-fluorobenzyl)-5,6-dimethyl-N-(pyrrolidin-3-yl)-1H-benzo[d]imidazol-2-amine]: 5.30 to 6.00 and 5.30 to 6.00.
In assay [1], `Cc1cc2c(nc(N3CCNCC3)n2Cc2ccc(F)c(C)c2)c(-c2ccncc2)n1` [Example 226, 1-(4-fluoro-3-methylbenzyl)-6-methyl-2-(piperazin-1-yl)-4-(pyridin-4-yl)-1H-imidazo[4,5-c]pyridine] had a negative logarithm of the EC50 (pEC50) of 4.52 to 5.30. In assay [2], the negative logarithm of the Ki (pKi) is less than 5.30.
In the same order, the values of `Cc1cc2c(nc(N3CCNCC3)n2Cc2ccc(F)c(Cl)c2)c(-c2ccnn2-c2ccc(Br)cc2)c1C` [Example 172, 4-(1-(4-bromophenyl)-1H-pyrazol-5-yl)-1-(3-chloro-4-fluorobenzyl)-5,6-dimethyl-2-(piperazin-1-yl)-1H-benzo[d]imidazole trifluoroacetate] are 5.30 to 6.00 and 5.30 to 6.00.
Regarding `Cc1cc(Cn2c(NCC3CNC3)nc3c(-c4ccccc4Cl)cc(Cl)cc32)cc(C)c1F` [Example 305, N-(azetidin-3-ylmethyl)-6-chloro-4-(2-chlorophenyl)-1-(4-fluoro-3,5-dimethylbenzyl)-1H-benzo[d]imidazol-2-amine], in assay [1], the pEC50 was greater than 6.00. In assay [2], the pKi was greater than 6.30.
As for `Cc1cc(Cn2c(NCC3CNC3)nc3c(N4CCN(C)CC4)cc(Cl)cc32)cc(C)c1F` [Example 301, N-(azetidin-3-ylmethyl)-6-chloro-1-(4-fluoro-3,5-dimethylbenzyl)-4-(4-methylpiperazin-1-yl)-1H-benzo[d]imidazol-2-amine], the pEC50 in assay [1] is 5.30 to 6.00. For the same compound, the negative logarithm of the Ki (pKi) in assay [2] is greater than 6.30.
In the same order, the values of `Cc1cc(NC[C@H]2CCNC2)c2nc(N3CCNCC3)n(Cc3cc(C)c(F)c(C)c3)c2c1` [Example 198, (S)-1-(4-fluoro-3,5-dimethylbenzyl)-6-methyl-2-(piperazin-1-yl)-N-(pyrrolidin-3-ylmethyl)-1H-benzo[d]imidazol-4-amine trifluoroacetate] are 5.30 to 6.00 and 6.00 to 6.30.
The matching figures for `Cc1cc2nc(N3CCCC(N)C3)n(Cc3ccc(F)c(Cl)c3)c2cc1C` (stereo not shown) [Example 290, 1-(1-(3-chloro-4-fluorobenzyl)-5,6-dimethyl-1H-benzo[d]imidazol-2-yl)piperidin-3-amine]: 5.30 to 6.00 and 5.30 to 6.00.
The matching figures for `Cc1cc(Cn2c(NCCN)nc3c(N4CCN(C)CC4)cc(Cl)cc32)cc(C)c1F` [Example 300, N^1-(6-chloro-1-(4-fluoro-3,5-dimethylbenzyl)-4-(4-methylpiperazin-1-yl)-1H-benzo[d]imidazol-2-yl)ethane-1,2-diamine]: greater than 6.00 and greater than 6.30.
For `Fc1ccc(Cn2c(N3CCNCC3)nc3c(-c4cccnc4OCc4ccccc4)cccc32)cc1Cl` [Example 266, 1-[(3-chloro-4-fluorophenyl)methyl]-4-(2-phenylmethoxypyridin-3-yl)-2-piperazin-1-ylbenzimidazole], the negative logarithm of the EC50 (pEC50) in assay [1] is 4.52 to 5.30. In addition, in assay [2], the negative-log Ki (pKi) was less than 5.30.
For the compound `CC(C)CN1CC[C@@H](C(=O)c2ccccc2)[C@H]1c1cc(Cl)cc2c1nc(N1CCNCC1)n2Cc1ccc(F)c(Cl)c1` [Example 150, ((2S,3R)-2-(6-chloro-1-(3-chloro-4-fluorobenzyl)-2-(piperazin-1-yl)-1H-benzo[d]imidazol-4-yl)-1-isobutylpyrrolidin-3-yl)(phenyl)methanone trifluoroacetate], the negative logarithm of the EC50 (pEC50) in assay [1] is 4.52 to 5.30. In assay [2], the pKi is less than 5.30.
Consider `Cc1cc2nc(N3CCNCC3)n(Cc3cc(Cl)c(F)c(Cl)c3)c2cc1C` [Example 277, 1-[(3,5-dichloro-4-fluorophenyl)methyl]-5,6-dimethyl-2-piperazin-1-ylbenzimidazole], for which the pEC50 in assay [1] is 5.30 to 6.00. Besides, in assay [2], the pKi was less than 5.30.
As to `Cc1cc(Cn2c(N3CCNCC3)nc3c(-c4c(C)cccc4C#Cc4ccccc4Cl)cc(Cl)cc32)cc(C)c1F` [Example 184, 6-chloro-4-(2-((2-chlorophenyl)ethynyl)-6-methylphenyl)-1-(4-fluoro-3,5-dimethylbenzyl)-2-(piperazin-1-yl)-1H-benzo[d]imidazole trifluoroacetate], the negative-log EC50 (pEC50) in assay [1] was 5.30 to 6.00. Besides, the negative logarithm of the Ki (pKi) in assay [2] was 6.00 to 6.30.
The matching figures for `Cc1cc2nc(NCCCN)n(Cc3cc(C)c(F)c(C)c3)c2cc1C` [Example 43, N^1-(1-(4-fluoro-3,5-dimethylbenzyl)-5,6-dimethyl-1H-benzo[d]imidazol-2-yl)propane-1,3-diamine trifluoroacetate]: 4.52 to 5.30 and less than 5.30.
In the same order, the values of `NCCc1cccc2c1nc(N1CCNCC1)n2Cc1ccc(F)c(Cl)c1` [Example 98, 2-(1-(3-chloro-4-fluorobenzyl)-2-(piperazin-1-yl)-1H-benzo[d]imidazol-4-yl)ethan-1-amine trifluoroacetate] are 5.30 to 6.00 and less than 5.30.
Turning to `Cc1cc(Cn2c(NCCN)nc3c(OCCN4CCCC4)cccc32)ccc1F` [Example 207, N^1-(1-(4-fluoro-3-methylbenzyl)-4-(2-(pyrrolidin-1-yl)ethoxy)-1H-benzo[d]imidazol-2-yl)ethane-1,2-diamine], the pEC50 in assay [1] is greater than 6.00. In addition, the negative-log Ki (pKi) in assay [2] is 5.30 to 6.00.
In the same order, the values of `NC(CO)c1cc(Cl)cc2c1nc(N1CCNCC1)n2Cc1ccc(F)c(Cl)c1` (stereo not shown) [Example 283, 2-amino-2-[6-chloro-1-[(3-chloro-4-fluorophenyl)methyl]-2-piperazin-1-ylbenzimidazol-4-yl]ethanol] are 4.52 to 5.30 and less than 5.30.
The matching figures for `Cc1cc2nc(N3CCNCC3)n(Cc3ccc(Cl)cc3)c2cc1C` [Example 19, 1-(4-chlorobenzyl)-5,6-dimethyl-2-(piperazin-1-yl)-1H-benzo[d]imidazole trifluoroacetate]: 4.52 to 5.30 and less than 5.30.
